Target: T1, human RNR (histidine tagged human M1 and human M2 proteins) (Homo sapiens, UniProt P23921)
T1 construct: made in house; host or cells: Escherichia coli
T1 sequence (P23921 1-792): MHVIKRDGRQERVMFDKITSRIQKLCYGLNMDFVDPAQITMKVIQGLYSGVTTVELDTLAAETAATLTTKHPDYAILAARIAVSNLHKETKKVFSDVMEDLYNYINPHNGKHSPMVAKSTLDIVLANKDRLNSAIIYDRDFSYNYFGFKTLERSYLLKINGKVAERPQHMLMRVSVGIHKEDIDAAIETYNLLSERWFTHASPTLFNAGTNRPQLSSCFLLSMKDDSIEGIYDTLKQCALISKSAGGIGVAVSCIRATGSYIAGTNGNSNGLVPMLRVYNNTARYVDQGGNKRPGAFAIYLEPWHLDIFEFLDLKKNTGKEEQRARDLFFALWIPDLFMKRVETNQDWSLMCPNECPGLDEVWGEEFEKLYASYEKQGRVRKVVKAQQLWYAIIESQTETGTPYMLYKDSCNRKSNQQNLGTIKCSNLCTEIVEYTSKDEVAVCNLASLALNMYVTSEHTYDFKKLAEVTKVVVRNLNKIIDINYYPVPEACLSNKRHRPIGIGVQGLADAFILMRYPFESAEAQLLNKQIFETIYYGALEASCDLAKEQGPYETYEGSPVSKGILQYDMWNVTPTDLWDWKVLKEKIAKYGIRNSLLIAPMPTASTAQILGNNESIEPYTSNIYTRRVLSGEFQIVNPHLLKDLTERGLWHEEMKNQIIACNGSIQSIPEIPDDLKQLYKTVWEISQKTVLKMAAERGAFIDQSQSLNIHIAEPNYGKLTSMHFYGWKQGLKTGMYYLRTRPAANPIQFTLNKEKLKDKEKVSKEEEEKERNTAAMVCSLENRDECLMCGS
Test: Human RNR inhibition effect (dCDP formation from CDP)
Type: biochemical
Settings: 10 μM CDP, 37° C. for 30 minutes, read-out: RNR inhibitory activity IC50
Outline: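 His-tagged human M1 (isoform 1) and N-terminal 59-aa-truncated M2 (isoform 2), E. coli-expressed, Ni-purified, preincubated 20 min with compound (1% DMSO). Reaction with 10 μM CDP, 2 mM ATP, 0.24 mM NADPH, 6 mM DTT, 4 mM Mg acetate, 100 mM KCl, 50 mM HEPES pH 7.2, 30 min at 37° C. dCDP formed quantified by reverse-phase HPLC after heat stop.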

With `COc1cc(Cl)ccc1S(=O)(=O)N[C@H](c1n[nH]c(=O)o1)C(C)c1c(F)c(F)cc(C)c1Br` (stereo partly drawn) [Example 89, N-((1S)-2-(2-bromo-5,6-difluoro-3-methylphenyl)-1-(5-oxo-4,5-dihydro-1,3,4-oxadiazol-2-yl)propyl)-4-chloro-2-methoxybenzenesulfonamide] the IC50 was 420 nM.
`Cc1ccc(F)c([C@@H](C)[C@H](NS(=O)(=O)c2ccc(Cl)c3c2OCCC3O)c2n[nH]c(=O)o2)c1C` (single isomer, unassigned) [Example 235B] showed an IC50 of 70 nM.
For `Cc1ccc(F)c([C@@H](C)[C@H](NS(=O)(=O)c2ccc(Cl)c3c2OCCN3)c2n[nH]c(=O)o2)c1C` [Example 275, 5-chloro-N-((1S,2R)-2-(6-fluoro-2,3-dimethylphenyl)-1-(5-oxo-4,5-dihydro-1,3,4-oxadiazol-2-yl)propyl)-3,4-dihydro-2H-benzo[b][1,4]oxazine-8-sulfonamide], the IC50 was 100 nM.
`COc1cc(Cl)ccc1S(=O)(=O)N[C@H](c1n[nH]c(=O)o1)[C@H](C)c1c(F)ccc(-c2ccc(N3CCCCC3)nc2)c1C` [Example 320, 4-chloro-N-((1S,2R)-2-(6-fluoro-2-methyl-3-(6-(piperidin-1-yl)pyridin-3-yl)phenyl)-1-(5-oxo-4,5-dihydro-1,3,4-oxadiazol-2-yl)propyl)-2-methoxybenzenesulfonamide] was tested, and the IC50 was 600 nM.
Compound `Cc1ccc(F)c([C@@H](C)[C@H](NS(=O)(=O)c2ccc(F)c(C(C)(C)O)c2F)c2n[nH]c(=O)o2)c1C` [Example 186, 2,4-difluoro-N-((1S,2R)-2-(6-fluoro-2,3-dimethylphenyl)-1-(5-oxo-4,5-dihydro-1,3,4-oxadiazol-2-yl)propyl)-3-(2-hydroxypropan-2-yl)benzenesulfonamide] has an IC50 of 90 nM.
`Cc1ccc(F)c([C@@H](C)[C@H](NS(=O)(=O)c2ccc(Cl)c(-c3nnn[nH]3)c2)c2n[nH]c(=O)o2)c1C` [Example 161, 4-chloro-N-((1S,2R)-2-(6-fluoro-2,3-dimethylphenyl)-1-(5-oxo-4,5-dihydro-1,3,4-oxadiazol-2-yl)propyl)-3-(1H-tetrazol-5-yl)benzenesulfonamide] was tested, and the IC50 was 280 nM.
Work on `Cc1ccc(F)c([C@@H](C)[C@H](NS(=O)(=O)c2cc(F)c(Cl)cc2C(=O)O)c2n[nH]c(=O)o2)c1C` [Example 217, 5-chloro-4-fluoro-2-(N-((1S,2R)-2-(6-fluoro-2,3-dimethylphenyl)-1-(5-oxo-4,5-dihydro-1,3,4-oxadiazol-2-yl)propyl)sulfamoyl)benzoic acid] yielded an IC50 of 960 nM.
`Cc1ccc(F)c([C@@H](C)[C@H](NS(=O)(=O)c2ccc3[nH]c(=O)c(=O)[nH]c3c2)c2n[nH]c(=O)o2)c1C` [Example 172, N-((1S,2R)-2-(6-fluoro-2,3-dimethylphenyl)-1-(5-oxo-4,5-dihydro-1,3,4-oxadiazol-2-yl)propyl)-2,3-dioxo-1,2,3,4-tetrahydroquinoxaline-6-sulfonamide] was tested, and the IC50 was 820 nM.
Work on `COc1cc(Cl)ccc1S(=O)(=O)N[C@H](c1n[nH]c(=O)o1)[C@H](C)c1c(F)ccc(-c2cc(F)cc(F)c2)c1C` [Example 299, 4-chloro-2-methoxy-N-((1S,2R)-1-(5-oxo-4,5-dihydro-1,3,4-oxadiazol-2-yl)-2-(3′,4,5′-trifluoro-2-methyl-[1,1′-biphenyl]-3-yl)propyl)benzenesulfonamide] yielded an IC50 of 940 nM.
`Cc1ccc(F)c([C@@H](C)[C@H](NS(=O)(=O)c2c(F)cc(Cl)cc2C(N)=O)c2n[nH]c(=O)o2)c1C` [Example 258, 5-chloro-3-fluoro-2-(N-((1S,2R)-2-(6-fluoro-2,3-dimethylphenyl)-1-(5-oxo-4,5-dihydro-1,3,4-oxadiazol-2-yl)propyl)sulfamoyl)benzamide] was tested, and the IC50 was 140 nM.
In the case of `Cc1ccc(F)c([C@H](C)[C@H](NS(=O)(=O)c2ccc(Cl)cc2C(N)=O)c2n[nH]c(=O)o2)c1C` [Example 32, 5-chloro-2-(N-((1S,2S)-2-(6-fluoro-2,3-dimethylphenyl)-1-(5-oxo-4,5-dihydro-1,3,4-oxadiazol-2-yl)propyl)sulfamoyl)benzamide], the IC50 is reported as 790 nM.
Compound `C[C@H](c1cccc2c1CCC2)[C@H](NS(=O)(=O)c1ccc(Br)c(C(C)(C)O)c1)c1n[nH]c(=O)o1` [Example 188, 4-bromo-N-((1S,2R)-2-(2,3-dihydro-1H-inden-4-yl)-1-(5-oxo-4,5-dihydro-1,3,4-oxadiazol-2-yl)propyl)-3-(2-hydroxypropan-2-yl)benzenesulfonamide] has an IC50 of 640 nM.
Compound `Cc1c(-c2cnn(C)c2)ccc(F)c1[C@@H](C)[C@H](NS(=O)(=O)c1ccc(Cl)cc1C(N)=O)c1n[nH]c(=O)o1` [Example 324, 5-chloro-2-(N-((1S,2R)-2-(6-fluoro-2-methyl-3-(1-methyl-1H-pyrazol-4-yl)phenyl)-1-(5-oxo-4,5-dihydro-1,3,4-oxadiazol-2-yl)propyl)sulfamoyl)benzamide] has an IC50 of 170 nM.
Compound `Cc1ccc(F)c([C@@H](C)[C@H](NS(=O)(=O)c2ccc(Cl)c(C(N)=O)n2)c2n[nH]c(=O)o2)c1C` [Example 31, 3-chloro-6-(N-((1S,2R)-2-(6-fluoro-2,3-dimethylphenyl)-1-(5-oxo-4,5-dihydro-1,3,4-oxadiazol-2-yl)propyl)sulfamoyl)picolinamide] has an IC50 of 100 nM.
`COc1cc(Cl)ccc1S(=O)(=O)N[C@H](c1n[nH]c(=O)o1)[C@H](C)c1c(F)ccc(-c2ccc(N3CCOCC3)nc2)c1C` [Example 315, 4-chloro-N-((1S,2R)-2-(6-fluoro-2-methyl-3-(6-morpholinopyridin-3-yl)phenyl)-1-(5-oxo-4,5-dihydro-1,3,4-oxadiazol-2-yl)propyl)-2-methoxybenzenesulfonamide] showed an IC50 of 190 nM.
With `C[C@H](c1cc(F)cc2ccccc12)[C@H](NS(=O)(=O)c1ccc(Cl)cc1C(N)=O)c1n[nH]c(=O)o1` [Example 9, 5-chloro-2-(N-((1S,2R)-2-(3-fluoronaphthalen-1-yl)-1-(5-oxo-4,5-dihydro-1,3,4-oxadiazol-2-yl)propyl)sulfamoyl)benzamide] the IC50 was 600 nM.
With `Cc1c(Cl)ccc(F)c1[C@@H](C)[C@H](NS(=O)(=O)c1ccc(Br)cc1C(N)=O)c1n[nH]c(=O)o1` [Example 25, 5-bromo-2-(N-((1S,2R)-2-(3-chloro-6-fluoro-2-methylphenyl)-1-(5-oxo-4,5-dihydro-1,3,4-oxadiazol-2-yl)propyl)sulfamoyl)benzamide] the IC50 was 150 nM.
`C[C@H](c1c(F)ccc2ccccc12)[C@H](NS(=O)(=O)c1ccc(Cl)c2c1OCCC2F)c1n[nH]c(=O)o1` (mixture of isomers) [Example 292, 5-chloro-4-fluoro-N-((1S,2R)-2-(2-fluoronaphthalen-1-yl)-1-(5-oxo-4,5-dihydro-1,3,4-oxadiazol-2-yl)propyl)chroman-8-sulfonamide] showed an IC50 of 160 nM.
With `CNC(=O)c1cc(Br)cnc1S(=O)(=O)N[C@H](c1n[nH]c(=O)o1)[C@H](C)c1c(F)ccc(C)c1C` [Example 251, 5-bromo-2-(N-((1S,2R)-2-(6-fluoro-2,3-dimethylphenyl)-1-(5-oxo-4,5-dihydro-1,3,4-oxadiazol-2-yl)propyl)sulfamoyl)-N-methylnicotinamide] the IC50 was 250 nM.
With `COc1cc(Cl)ccc1S(=O)(=O)N[C@H](c1n[nH]c(=O)o1)[C@H](C)c1cccc(C)c1C(C)C` [Example 85, 4-chloro-N-((1S,2R)-2-(2-isopropyl-3-methylphenyl)-1-(5-oxo-4,5-dihydro-1,3,4-oxadiazol-2-yl)propyl)-2-methoxybenzenesulfonamide] the IC50 was 840 nM.
`C=C(c1c(F)ccc(C)c1C)[C@H](NS(=O)(=O)c1ccc(Cl)cc1OC)c1n[nH]c(=O)o1` [Example 185, (S)-4-chloro-N-(2-(6-fluoro-2,3-dimethylphenyl)-1-(5-oxo-4,5-dihydro-1,3,4-oxadiazol-2-yl)allyl)-2-methoxybenzensulfonamide] gave an IC50 of 600 nM.
`[2H]C([2H])([2H])C1(O)CCOc2c(S(=O)(=O)N[C@H](c3n[nH]c(=O)o3)[C@H](C)c3c(F)ccc(Br)c3C)ccc(Cl)c21` (single isomer, unassigned) [Example 226B] gave an IC50 of 70 nM.
Work on `Cc1ccc(F)c([C@@H](C)[C@H](NS(=O)(=O)c2ccc3c(c2)CC(=O)N3)c2n[nH]c(=O)o2)c1C` [Example 162, N-((1S,2R)-2-(6-fluoro-2,3-dimethylphenyl)-1-(5-oxo-4,5-dihydro-1,3,4-oxadiazol-2-yl)propyl)-2-oxoindoline-5-sulfonamide] yielded an IC50 of 740 nM.
For `Cc1ccc(F)c([C@@H](C)[C@H](NS(=O)(=O)c2ccc(Cl)c3c2OCCC3(C)O)c2n[nH]c(=O)o2)c1C` (single isomer, unassigned) [Example 207A], the IC50 was 130 nM.

Source: patent US20200405697A1, “Antitumor Agent” (Taiho Pharmaceutical Co., Ltd, priority 2017, published 2020)
